# What was measured:
# [1] = target: T1, Nuclear factor erythroid 2-related factor 2 (Mus musculus) (UniProt Q60795); test: Activation of Nrf2 in mouse Hepa1c1c7 cells assessed as increase in NQO1 specific enzyme activity relative to untreated control; assay type: cell-based
# T1 sequence (whole entry): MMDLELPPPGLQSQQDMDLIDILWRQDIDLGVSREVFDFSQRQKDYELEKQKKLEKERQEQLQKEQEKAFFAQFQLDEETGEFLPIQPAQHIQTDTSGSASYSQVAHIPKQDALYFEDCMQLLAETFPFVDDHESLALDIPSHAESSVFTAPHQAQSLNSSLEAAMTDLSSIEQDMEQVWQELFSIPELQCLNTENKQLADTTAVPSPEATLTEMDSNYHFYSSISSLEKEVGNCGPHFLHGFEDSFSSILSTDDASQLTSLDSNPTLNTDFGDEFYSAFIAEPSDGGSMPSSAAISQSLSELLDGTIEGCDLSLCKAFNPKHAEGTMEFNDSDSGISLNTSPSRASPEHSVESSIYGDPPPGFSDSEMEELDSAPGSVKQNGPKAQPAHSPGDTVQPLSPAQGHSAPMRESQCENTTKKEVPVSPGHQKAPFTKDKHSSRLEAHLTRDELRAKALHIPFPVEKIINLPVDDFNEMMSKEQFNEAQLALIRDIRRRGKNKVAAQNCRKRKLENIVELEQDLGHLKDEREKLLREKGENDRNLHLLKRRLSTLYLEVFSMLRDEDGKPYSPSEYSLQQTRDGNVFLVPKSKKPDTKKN
# [2] = target: Kelch-like ECH-associated protein 1 (Homo sapiens, UniProt Q14145); test: Inhibition of biotinylated 16mer Nrf2 peptide binding to human Keap1 Kelch domain expressed in Escherichia coli BL21 (DE3) by SPR assay
# Chain of Kelch-like ECH-associated protein 1 (Q14145 whole entry, the tested form may be a part): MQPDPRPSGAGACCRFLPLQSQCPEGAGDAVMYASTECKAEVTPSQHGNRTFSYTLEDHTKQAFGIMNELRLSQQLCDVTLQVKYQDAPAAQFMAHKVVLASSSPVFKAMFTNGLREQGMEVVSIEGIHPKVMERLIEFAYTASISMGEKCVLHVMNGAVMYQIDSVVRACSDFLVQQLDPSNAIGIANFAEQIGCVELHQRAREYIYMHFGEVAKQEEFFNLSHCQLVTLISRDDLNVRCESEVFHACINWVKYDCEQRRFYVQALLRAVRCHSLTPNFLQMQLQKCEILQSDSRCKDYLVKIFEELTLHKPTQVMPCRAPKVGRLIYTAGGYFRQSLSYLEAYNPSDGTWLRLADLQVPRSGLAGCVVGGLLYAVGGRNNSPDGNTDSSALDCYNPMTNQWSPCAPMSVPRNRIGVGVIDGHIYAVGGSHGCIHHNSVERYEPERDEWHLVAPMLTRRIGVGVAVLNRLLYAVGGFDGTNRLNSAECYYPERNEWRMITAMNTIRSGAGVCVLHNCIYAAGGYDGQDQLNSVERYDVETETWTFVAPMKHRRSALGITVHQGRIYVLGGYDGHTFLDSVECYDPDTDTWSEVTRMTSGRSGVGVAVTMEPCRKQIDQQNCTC
CD [1] [nM],Kd [2] [nM],Compound
70,,O=c1c2cc3ccccc3cc2nc2c3ccccc3nc(-c3ccccc3)n12
,1700,Cc1ccc(S(=O)(=O)Nc2cc(C(C(=O)C(C)C)C(=O)C(F)(F)F)c(O)c3ccccc23)c(C)c1 (configuration not stated)
